Assay results as given in the kinase profiling compilation of Christmann-Franck et al. (2016).

Legend:
Experiment in all cases: radiometric filter-binding kinase assay, Kinase HotSpot
Conditions in all cases: compound 0.5 µM; ATP 10 µM
ABL1 (human) = ABL1 (human) (UniProt P00519)
AURKA (human) = AURKA (human) (UniProt O14965)
BLK (human) = BLK (human) (UniProt P51451)
BRSK2 (human) = BRSK2 (human) (UniProt Q8IWQ3)
CAMK2B (human) = CAMK2B (human) (UniProt Q13554)
CDK3 CCNE1 (human) = CDK3 CCNE1 (human) (UniProt Q00526+P24864)
CDK4 CCND1 (human) = CDK4 CCND1 (human) (UniProt P24385+P11802)
CLK3 (human) = CLK3 (human) (UniProt P49761)
CSNK2A1 (human) = CSNK2A1 (human) (UniProt P68400)
DCLK2 (human) = DCLK2 (human) (UniProt Q8N568)
DDR2 (human) = DDR2 (human) (UniProt Q16832)
EPHB3 (human) = EPHB3 (human) (UniProt P54753)
FGFR1 (human) = FGFR1 (human) (UniProt P11362)
GRK4 (human) = GRK4 (human) (UniProt P32298)
IKBKB (human) = IKBKB (human) (UniProt O14920)
LTK (human) = LTK (human) (UniProt P29376)
MAPK1 (human) = MAPK1 (human) (UniProt P28482)
MAPK14 (human) = MAPK14 (human) (UniProt Q16539)
MAPKAPK2 (human) = MAPKAPK2 (human) (UniProt P49137)
MAPKAPK5 (human) = MAPKAPK5 (human) (UniProt Q8IW41)
MKNK2 (human) = MKNK2 (human) (UniProt Q9HBH9)
MLTK (human) = MLTK (human) (UniProt Q9NYL2)
NEK4 (human) = NEK4 (human) (UniProt P51957)
NTRK3 (human) = NTRK3 (human) (UniProt Q16288)
PHKG1 (human) = PHKG1 (human) (UniProt Q16816)
PRKCD (human) = PRKCD (human) (UniProt Q05655)
PRKCH (human) = PRKCH (human) (UniProt P24723)
RET (human) = RET (human) (UniProt P07949)
RPS6KA1 KD1 KD2 (human) = RPS6KA1 KD1 KD2 (human) (UniProt Q15418)
RPS6KA2 KD1 KD2 (human) = RPS6KA2 KD1 KD2 (human) (UniProt Q15349)
RPS6KA4 KD2 (human) = RPS6KA4 KD2 (human) (UniProt O75676)
RPS6KA6 KD1 KD2 (human) = RPS6KA6 KD1 KD2 (human) (UniProt Q9UK32)
RPS6KB2 (human) = RPS6KB2 (human) (UniProt Q9UBS0)
STK17A (human) = STK17A (human) (UniProt Q9UEE5)
STK24 (human) = STK24 (human) (UniProt Q9Y6E0)
TAOK1 (human) = TAOK1 (human) (UniProt Q7L7X3)
TAOK2 (human) = TAOK2 (human) (UniProt Q9UL54)
TXK (human) = TXK (human) (UniProt P42681)
TYRO3 (human) = TYRO3 (human) (UniProt Q06418)
ULK2 (human) = ULK2 (human) (UniProt Q8IYT8)
WEE1 (human) = WEE1 (human) (UniProt P30291)
YES1 (human) = YES1 (human) (UniProt P07947)

BLK (human), sequence (P51451 whole entry, looked up): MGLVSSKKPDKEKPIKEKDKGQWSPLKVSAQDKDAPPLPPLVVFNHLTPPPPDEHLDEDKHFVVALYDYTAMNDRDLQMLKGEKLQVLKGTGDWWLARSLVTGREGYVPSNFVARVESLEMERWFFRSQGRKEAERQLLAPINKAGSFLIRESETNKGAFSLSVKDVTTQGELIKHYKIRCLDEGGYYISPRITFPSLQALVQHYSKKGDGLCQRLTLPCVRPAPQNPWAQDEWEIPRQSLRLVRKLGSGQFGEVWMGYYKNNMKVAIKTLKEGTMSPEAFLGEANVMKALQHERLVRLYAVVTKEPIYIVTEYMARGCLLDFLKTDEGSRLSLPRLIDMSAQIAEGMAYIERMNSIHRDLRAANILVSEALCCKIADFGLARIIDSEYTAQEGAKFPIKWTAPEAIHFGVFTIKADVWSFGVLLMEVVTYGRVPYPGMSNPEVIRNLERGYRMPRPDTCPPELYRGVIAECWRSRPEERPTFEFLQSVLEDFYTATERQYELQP
ABL1 (human), sequence (P00519 whole entry, looked up): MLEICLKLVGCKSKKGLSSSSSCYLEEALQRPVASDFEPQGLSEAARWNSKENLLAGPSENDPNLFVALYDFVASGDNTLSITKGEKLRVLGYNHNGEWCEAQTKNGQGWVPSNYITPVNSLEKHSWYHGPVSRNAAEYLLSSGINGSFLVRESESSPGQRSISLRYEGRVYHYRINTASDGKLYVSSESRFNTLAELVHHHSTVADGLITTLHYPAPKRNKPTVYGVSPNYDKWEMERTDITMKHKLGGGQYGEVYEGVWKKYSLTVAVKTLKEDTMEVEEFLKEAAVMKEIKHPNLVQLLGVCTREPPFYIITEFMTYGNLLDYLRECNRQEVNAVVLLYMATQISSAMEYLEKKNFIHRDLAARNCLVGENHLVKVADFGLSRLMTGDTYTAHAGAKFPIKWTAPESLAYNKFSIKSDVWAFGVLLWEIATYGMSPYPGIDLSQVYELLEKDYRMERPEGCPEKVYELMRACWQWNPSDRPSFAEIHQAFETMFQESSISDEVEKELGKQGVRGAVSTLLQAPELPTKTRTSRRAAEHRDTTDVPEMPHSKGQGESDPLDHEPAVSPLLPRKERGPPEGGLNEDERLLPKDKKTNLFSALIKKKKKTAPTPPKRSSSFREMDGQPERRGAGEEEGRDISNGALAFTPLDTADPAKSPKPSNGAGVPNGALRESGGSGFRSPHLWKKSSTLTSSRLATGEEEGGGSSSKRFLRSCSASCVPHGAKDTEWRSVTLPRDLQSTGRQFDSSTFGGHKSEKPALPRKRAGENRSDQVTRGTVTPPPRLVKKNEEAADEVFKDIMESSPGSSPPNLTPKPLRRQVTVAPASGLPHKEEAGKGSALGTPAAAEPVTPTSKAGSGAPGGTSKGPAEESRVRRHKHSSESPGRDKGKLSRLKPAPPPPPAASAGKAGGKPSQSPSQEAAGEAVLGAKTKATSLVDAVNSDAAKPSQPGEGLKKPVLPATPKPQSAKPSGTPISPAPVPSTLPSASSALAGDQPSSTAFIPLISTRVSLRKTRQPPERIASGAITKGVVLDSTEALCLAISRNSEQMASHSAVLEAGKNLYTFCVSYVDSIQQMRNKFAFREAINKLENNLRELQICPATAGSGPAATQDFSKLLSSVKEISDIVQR
CSNK2A1 (human), sequence (P68400 whole entry, looked up): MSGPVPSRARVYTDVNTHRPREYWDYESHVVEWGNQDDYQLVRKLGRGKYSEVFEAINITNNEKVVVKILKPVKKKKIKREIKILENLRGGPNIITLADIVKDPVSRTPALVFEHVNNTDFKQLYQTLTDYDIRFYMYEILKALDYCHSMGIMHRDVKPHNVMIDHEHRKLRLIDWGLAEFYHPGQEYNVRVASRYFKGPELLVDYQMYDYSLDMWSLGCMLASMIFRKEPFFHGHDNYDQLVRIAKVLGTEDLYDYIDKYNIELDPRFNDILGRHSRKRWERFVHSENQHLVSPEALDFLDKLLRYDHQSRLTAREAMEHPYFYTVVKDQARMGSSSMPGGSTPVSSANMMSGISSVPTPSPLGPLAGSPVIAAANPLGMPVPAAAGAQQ
AURKA (human), sequence (O14965 whole entry, looked up): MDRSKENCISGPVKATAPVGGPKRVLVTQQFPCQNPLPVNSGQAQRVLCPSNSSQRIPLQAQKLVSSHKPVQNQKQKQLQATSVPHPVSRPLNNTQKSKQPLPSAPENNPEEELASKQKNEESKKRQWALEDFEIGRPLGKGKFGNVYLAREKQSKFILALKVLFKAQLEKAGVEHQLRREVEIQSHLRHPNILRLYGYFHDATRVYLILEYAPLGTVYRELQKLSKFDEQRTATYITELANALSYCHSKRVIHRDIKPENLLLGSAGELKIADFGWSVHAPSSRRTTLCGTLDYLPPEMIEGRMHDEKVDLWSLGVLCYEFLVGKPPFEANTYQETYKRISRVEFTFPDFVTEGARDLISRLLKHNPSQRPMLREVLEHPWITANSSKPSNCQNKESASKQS
TXK (human), sequence (P42681 whole entry, looked up): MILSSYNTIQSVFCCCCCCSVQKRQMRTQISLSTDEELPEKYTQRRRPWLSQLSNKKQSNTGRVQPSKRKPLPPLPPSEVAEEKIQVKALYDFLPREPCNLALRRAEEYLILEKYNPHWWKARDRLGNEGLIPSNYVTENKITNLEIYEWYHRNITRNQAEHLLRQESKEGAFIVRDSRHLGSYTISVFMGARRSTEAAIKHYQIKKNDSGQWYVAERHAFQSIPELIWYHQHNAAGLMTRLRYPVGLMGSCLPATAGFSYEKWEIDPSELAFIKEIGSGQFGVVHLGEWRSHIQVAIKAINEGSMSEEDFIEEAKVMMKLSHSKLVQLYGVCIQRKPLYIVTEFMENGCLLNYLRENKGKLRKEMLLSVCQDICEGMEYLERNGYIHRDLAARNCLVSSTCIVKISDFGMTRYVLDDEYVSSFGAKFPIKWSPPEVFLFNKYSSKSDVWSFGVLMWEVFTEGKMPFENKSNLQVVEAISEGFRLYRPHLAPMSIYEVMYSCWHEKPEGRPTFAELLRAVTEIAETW
RPS6KB2 (human), sequence (Q9UBS0 whole entry, looked up): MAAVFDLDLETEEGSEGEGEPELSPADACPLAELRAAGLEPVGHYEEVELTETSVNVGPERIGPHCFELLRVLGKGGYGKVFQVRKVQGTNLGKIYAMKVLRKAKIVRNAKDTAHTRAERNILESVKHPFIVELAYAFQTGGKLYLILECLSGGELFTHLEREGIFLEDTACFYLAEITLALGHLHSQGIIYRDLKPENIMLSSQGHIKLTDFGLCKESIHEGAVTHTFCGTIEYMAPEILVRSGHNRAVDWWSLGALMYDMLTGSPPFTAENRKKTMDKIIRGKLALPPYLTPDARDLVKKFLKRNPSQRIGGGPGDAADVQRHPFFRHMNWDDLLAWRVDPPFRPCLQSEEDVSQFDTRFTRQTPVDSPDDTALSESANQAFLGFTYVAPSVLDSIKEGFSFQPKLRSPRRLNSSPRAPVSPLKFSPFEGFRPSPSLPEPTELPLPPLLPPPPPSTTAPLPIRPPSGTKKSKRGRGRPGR
TAOK1 (human), sequence (Q7L7X3 whole entry, looked up): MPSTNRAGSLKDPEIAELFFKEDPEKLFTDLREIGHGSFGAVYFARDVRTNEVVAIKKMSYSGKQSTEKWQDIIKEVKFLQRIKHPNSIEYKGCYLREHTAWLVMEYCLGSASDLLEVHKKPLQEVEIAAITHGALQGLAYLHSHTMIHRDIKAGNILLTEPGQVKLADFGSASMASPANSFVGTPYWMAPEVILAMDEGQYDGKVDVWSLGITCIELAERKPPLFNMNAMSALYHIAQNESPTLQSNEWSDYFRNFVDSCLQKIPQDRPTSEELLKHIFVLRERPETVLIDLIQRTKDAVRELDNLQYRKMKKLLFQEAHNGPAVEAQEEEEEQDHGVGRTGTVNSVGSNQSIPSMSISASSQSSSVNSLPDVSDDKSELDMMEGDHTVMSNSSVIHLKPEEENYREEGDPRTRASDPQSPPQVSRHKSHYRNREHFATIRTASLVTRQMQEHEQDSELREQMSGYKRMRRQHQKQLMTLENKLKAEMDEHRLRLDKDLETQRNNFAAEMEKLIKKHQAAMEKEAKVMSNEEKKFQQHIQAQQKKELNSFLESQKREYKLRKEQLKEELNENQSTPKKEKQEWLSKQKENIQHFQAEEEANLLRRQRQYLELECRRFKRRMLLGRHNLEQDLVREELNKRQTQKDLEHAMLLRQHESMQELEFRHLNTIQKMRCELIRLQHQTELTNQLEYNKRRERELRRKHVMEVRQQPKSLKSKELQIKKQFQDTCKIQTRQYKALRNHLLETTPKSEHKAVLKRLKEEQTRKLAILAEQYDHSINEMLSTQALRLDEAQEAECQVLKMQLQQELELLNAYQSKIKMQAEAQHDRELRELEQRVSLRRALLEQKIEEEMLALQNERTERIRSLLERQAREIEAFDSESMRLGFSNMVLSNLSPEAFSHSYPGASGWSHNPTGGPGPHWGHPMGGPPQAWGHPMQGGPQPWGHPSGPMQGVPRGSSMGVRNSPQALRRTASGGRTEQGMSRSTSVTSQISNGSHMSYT
STK24 (human), sequence (Q9Y6E0 whole entry, looked up): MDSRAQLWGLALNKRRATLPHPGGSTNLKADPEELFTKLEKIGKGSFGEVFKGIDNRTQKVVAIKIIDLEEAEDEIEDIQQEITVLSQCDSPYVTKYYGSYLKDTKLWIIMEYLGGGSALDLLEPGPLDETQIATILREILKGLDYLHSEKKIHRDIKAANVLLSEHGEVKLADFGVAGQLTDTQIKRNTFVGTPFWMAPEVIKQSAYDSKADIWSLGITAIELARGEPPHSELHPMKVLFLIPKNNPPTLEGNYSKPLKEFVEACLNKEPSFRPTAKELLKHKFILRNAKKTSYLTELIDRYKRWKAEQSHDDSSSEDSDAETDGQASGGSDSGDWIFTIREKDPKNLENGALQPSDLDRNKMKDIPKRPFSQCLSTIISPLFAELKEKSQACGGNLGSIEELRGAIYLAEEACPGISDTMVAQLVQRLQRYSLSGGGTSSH

`CC(=O)O/N=C1\C(=C2\C(=O)Nc3cc(Br)ccc32)Nc2ccccc21` was tested, and the residual activity (ABL1 (human)) was 43.1%, the residual activity (AURKA (human)) was 55.4% and the residual activity (BLK (human)) was 25.6%. It also gave a residual activity (BRSK2 (human)) of 43.4%, a residual activity (CAMK2B (human)) of 91.5% and a residual activity (CDK3 CCNE1 (human)) of 36.3%. The residual activity (CDK4 CCND1 (human)) was 73.3%, the residual activity (CLK3 (human)) was 75.1% and the residual activity (CSNK2A1 (human)) was 81.8%. The residual activity (DCLK2 (human)) was 90.2%, the residual activity (DDR2 (human)) was 89.8% and the residual activity (EPHB3 (human)) was 94.2%. It also gave a residual activity (FGFR1 (human)) of 68.8%, a residual activity (GRK4 (human)) of 97.6% and a residual activity (IKBKB (human)) of 92.4%. For the same compound, the residual activity (LTK (human)) was 83.3%, the residual activity (MAPK1 (human)) was 87.9% and the residual activity (MAPK14 (human)) was 99.2%. It also gave a residual activity (MAPKAPK2 (human)) of 109%, a residual activity (MAPKAPK5 (human)) of 94.9% and a residual activity (MKNK2 (human)) of 66.9%. It also gave a residual activity (MLTK (human)) of 77%, a residual activity (NEK4 (human)) of 85.6% and a residual activity (NTRK3 (human)) of 15.1%. For the same compound, the residual activity (PHKG1 (human)) was 67.7%, the residual activity (PRKCD (human)) was 97% and the residual activity (PRKCH (human)) was 95.4%. For the same compound, the residual activity (RET (human)) was 6.58%, the residual activity (RPS6KA1 KD1 KD2 (human)) was 69% and the residual activity (RPS6KA2 KD1 KD2 (human)) was 51%. For the same compound, the residual activity (RPS6KA4 KD2 (human)) was 97.6%, the residual activity (RPS6KA6 KD1 KD2 (human)) was 70% and the residual activity (RPS6KB2 (human)) was 83.7%. The residual activity (STK17A (human)) was 72.7%, the residual activity (STK24 (human)) was 70.9% and the residual activity (TAOK1 (human)) was 126%. It also gave a residual activity (TAOK2 (human)) of 84.4%, a residual activity (TXK (human)) of 46.4% and a residual activity (TYRO3 (human)) of 69.8%. It also gave a residual activity (ULK2 (human)) of 92.2%, a residual activity (WEE1 (human)) of 93.7% and a residual activity (YES1 (human)) of 46.4%.
`Nc1nnc2[nH]c3ccccc3nc1-2` gave a residual activity (ABL1 (human)) of 91.6%, a residual activity (AURKA (human)) of 111% and a residual activity (BLK (human)) of 96.6%. The residual activity (BRSK2 (human)) was 96.5%, the residual activity (CAMK2B (human)) was 90% and the residual activity (CDK3 CCNE1 (human)) was 93.1%. It also gave a residual activity (CDK4 CCND1 (human)) of 92.4%, a residual activity (CLK3 (human)) of 94.3% and a residual activity (CSNK2A1 (human)) of 87.6%. For the same compound, the residual activity (DCLK2 (human)) was 94.6%, the residual activity (DDR2 (human)) was 94.6% and the residual activity (EPHB3 (human)) was 90.3%. For the same compound, the residual activity (FGFR1 (human)) was 93.9%, the residual activity (GRK4 (human)) was 98.9% and the residual activity (IKBKB (human)) was 102%. For the same compound, the residual activity (LTK (human)) was 89.4%, the residual activity (MAPK1 (human)) was 100% and the residual activity (MAPK14 (human)) was 96.6%. The residual activity (MAPKAPK2 (human)) was 105%, the residual activity (MAPKAPK5 (human)) was 82.7% and the residual activity (MKNK2 (human)) was 89.1%. It also gave a residual activity (MLTK (human)) of 96.3%, a residual activity (NEK4 (human)) of 97.8% and a residual activity (NTRK3 (human)) of 92.1%. It also gave a residual activity (PHKG1 (human)) of 86.9%, a residual activity (PRKCD (human)) of 98.3% and a residual activity (PRKCH (human)) of 87.9%. It also gave a residual activity (RET (human)) of 97.1%, a residual activity (RPS6KA1 KD1 KD2 (human)) of 97.9% and a residual activity (RPS6KA2 KD1 KD2 (human)) of 89.1%. For the same compound, the residual activity (RPS6KA4 KD2 (human)) was 79%, the residual activity (RPS6KA6 KD1 KD2 (human)) was 94.2% and the residual activity (RPS6KB2 (human)) was 102%. The residual activity (STK17A (human)) was 95.2%, the residual activity (STK24 (human)) was 89.1% and the residual activity (TAOK1 (human)) was 101%. The residual activity (TAOK2 (human)) was 103%, the residual activity (TXK (human)) was 97.6% and the residual activity (TYRO3 (human)) was 101%. For the same compound, the residual activity (ULK2 (human)) was 95.9%, the residual activity (WEE1 (human)) was 101% and the residual activity (YES1 (human)) was 97.1%.
